Experimental data published in patent US20140336259A1, “PHENOLIC COMPOUNDS WITH ANTIOXIDANT AND ANTI-CANCER PROPERTIES, ANALOGS AND SYNTHESIS THEREOF” (priority 2011, published 2014).
Converted amounts (≈) assume the structure as drawn. “And” between values parts separate entries of the source, which are not always exact repeats. Identical values can stand only once. Like-named read-outs stand apart in the source and are kept apart here.

Key:
[1] = tested on: MCF-7 (estrogen receptor (ER) positive) human breast cancer cells; assay: MTS antiproliferative/cytotoxicity assay on MCF-7 cells; details: for antiproliferative / cytotoxic activity in words: against MCF-7 cells and MDA-MB 231 cells, 72 h of treatment; for MCF-7 IC50: 72 h treatment, mean ± S.D., vs DMSO 0.5% control
[2] = tested on: MDA-MB-231 (ER negative) human breast cancer cells; assay: MTS antiproliferative/cytotoxicity assay on MDA-MB-231 cells; type: cell-based
[3] = tested on: MCF-7 (estrogen receptor (ER) positive) human breast cancer cells
colon cancer cell lines = details: Gonzales-Sarrias et al. 2011; cited from earlier work
[4] = read-out: IC50 MCF-7 24 h, 24 h
[5] = read-out: IC50 MCF-7 48 h, 48 h
[6] = read-out: IC50 MCF-7 72 h, 72 h
[7] = read-out: IC50 MCF-7 96 h, 96 h
[8] = 24 h, read-out: IC50 MDA-MB-231 24 h
[9] = 72 h, read-out: IC50 MDA-MB-231 72 h
[10] = 72 h treatment, mean ± S.D., vs DMSO 0.5% control
[11] = 96 h, read-out: IC50 MDA-MB-231 96 h
[12] = read-out: IC50 MDA-MB-231 48 h, 48 h
[13] = Homo sapiens, MDA-MB-231, 48 h, read-out: IC50 MDA-MB-231 48 h, 48 h
[14] = Homo sapiens, MDA-MB-231, 72 h, 72 h, read-out: IC50 MDA-MB-231 72 h
[15] = Homo sapiens, MDA-MB-231, 72 h, 72 h treatment, mean ± S.D., vs DMSO 0.5% control, read-out: MDA-MB-231 IC50
[16] = Homo sapiens, MDA-MB-231, 96 h, 96 h, read-out: IC50 MDA-MB-231 96 h
[17] = Homo sapiens, MDA-MB-231, 24 h, 24 h, read-out: IC50 MDA-MB-231 24 h

## COc1ccc(C(O)(c2ccc(OC)c(F)c2)c2ccc(OC)c(F)c2)cc1F [TRD7]
[1]; 24 h
  IC50 MCF-7 24 h: 42.3 µg/mL (≈ 105 µM)
[1]; 48 h
  IC50 MCF-7 48 h: 32.7 µg/mL (≈ 80.9 µM)
[1]; 72 h
  IC50 MCF-7 72 h: 24.8 µg/mL (≈ 61.3 µM)
[1]; 96 h
  IC50 MCF-7 96 h: 23.2 µg/mL (≈ 57.4 µM)
[1]
  antiproliferative / cytotoxic activity in words: highest antiproliferative activities
[1]; [4]
  IC50: 105 µM
[1]; [5]
  IC50: 80.9 µM
[1]; [6]
  IC50: 61.3 µM
[1]; [7]
  IC50: 57.3 µM
[2]; 24 h
  IC50 MDA-MB-231 24 h: 36.4 µg/mL (≈ 90 µM)
[2]; [8]
  IC50: 90 µM
[2]; 48 h
  IC50 MDA-MB-231 48 h: 30.4 µg/mL (≈ 75.2 µM)
[2]; 72 h
  IC50 MDA-MB-231 72 h: 24.0 µg/mL (≈ 59.3 µM)
[2]; [9]
  IC50: 59.4 µM
[2]; [10]
  MDA-MB-231 IC50: 24.0 ± 2.1 µg/mL
[2]; 96 h
  IC50 MDA-MB-231 96 h: 15.6 µg/mL (≈ 38.6 µM)
[2]; [11]
  IC50: 38.7 µM
[2]; [12]
  IC50: 75.3 µM

## COc1ccc(C(O)(c2ccc(OC)c(Cl)c2)c2ccc(OC)c(Cl)c2)cc1Cl [TRD10]
[1]; 24 h
  IC50 MCF-7 24 h: 87.0 µg/mL (≈ 192 µM)
[1]; 48 h
  IC50 MCF-7 48 h: 81.9 µg/mL (≈ 180 µM)
[1]
  MCF-7 IC50: 73.5 ± 1.8 µg/mL
[1]; 96 h
  IC50 MCF-7 96 h: 54.4 µg/mL (≈ 120 µM)
[1]; [4]
  IC50: 192 µM
[1]; [5]
  IC50: 180 µM
[1]; [6]
  IC50: 162 µM
[1]; [7]
  IC50: 120 µM
[2]; [13]
  IC50: 85.8 µg/mL and 189 µM
[2]; [14]
  IC50: 77.4 µg/mL and 170 µM
[2]; [15]
  IC50: 62.9 to 77.4 µg/mL
[2]; [16]
  IC50: 68.7 µg/mL and 151 µM
[3]
  antiproliferative / cytotoxic activity in words: moderate cytotoxic activity

## COc1cc(C(CO)C(c2ccc(O)c(OC)c2)c2ccc(O)c(OC)c2)ccc1O (stereo not shown) [QUEBECOL, 4,4′,4″-(3-Hydroxypropane-1,1,2-triyl)tris(2-methoxyphenol)]
[1]; 24 h
  IC50 MCF-7 24 h: 65.9 µg/mL (≈ 155 µM)
[1]; 48 h
  IC50 MCF-7 48 h: 53.5 µg/mL (≈ 125 µM)
[1]
  MCF-7 IC50: 46.3 ± 2.1 µg/mL
[1]; listed as QUEBECOL Natural
  MCF-7 IC50: 46.3 ± 2.1 µg/mL
[1]; 96 h
  IC50 MCF-7 96 h: 37.4 µg/mL (≈ 87.7 µM)
[1]; read-out: IC50 MCF-7 24 h, 24 h, combination study Table 5A, T starting 50 μM, Q starting 200 μM
  IC50: 155 µM
[1]; read-out: IC50 MCF-7 24 h, 24 h, listed as QUEBECOL Natural
  IC50: 155 µM
[1]; read-out: IC50 MCF-7 48 h, 48 h, combination study Table 5A
  IC50: 126 µM
[1]; read-out: IC50 MCF-7 48 h, 48 h, listed as QUEBECOL Natural
  IC50: 126 µM
[1]; read-out: IC50 MCF-7 72 h, 72 h, combination study Table 5A
  IC50: 109 µM
[1]; read-out: IC50 MCF-7 72 h, 72 h, listed as QUEBECOL Natural
  IC50: 109 µM
[1]; read-out: IC50 MCF-7 96 h, 96 h, combination study Table 5A
  IC50: 87.9 µM
[1]; read-out: IC50 MCF-7 96 h, 96 h, listed as QUEBECOL Natural
  IC50: 87.9 µM
[2]; Homo sapiens, MDA-MB-231, 24 h, 24 h, combination study Table 5B, T starting 50 μM, Q starting 200 μM, read-out: IC50 MDA-MB-231 24 h
  IC50: 166 µM
[2]; [17]
  IC50: 70.9 µg/mL and 166 µM
[2]; [13]
  IC50: 57 µg/mL and 134 µM
[2]; Homo sapiens, MDA-MB-231, 48 h, read-out: IC50 MDA-MB-231 48 h, 48 h, combination study Table 5B
  IC50: 134 µM
[2]; Homo sapiens, MDA-MB-231, 72 h, 72 h, combination study Table 5B, read-out: IC50 MDA-MB-231 72 h
  IC50: 119 µM
[2]; [14]
  IC50: 50.7 µg/mL and 119 µM
[2]; [15]
  IC50: 50.7 ± 2.4 µg/mL
[2]; Homo sapiens, MDA-MB-231, 96 h, 96 h, combination study Table 5B, read-out: IC50 MDA-MB-231 96 h
  IC50: 102 µM
[2]; [16]
  IC50: 43.3 µg/mL and 102 µM
Colon cancer cell lines
  cytotoxic effect on colon cancer cell lines: cytotoxic effect

## COc1cc(C(CO)C(c2ccc(O)c(OC)c2)c2ccc(O)c(OC)c2)ccc1O (stereo not shown) [QUEBECOL SYNTHETIC, 4,4′,4″-(3-Hydroxypropane-1,1,2-triyl)tris(2-methoxyphenol)]
[1]; 24 h
  IC50 MCF-7 24 h: 67.2 µg/mL (≈ 158 µM)
[1]; 48 h
  IC50 MCF-7 48 h: 54.2 µg/mL (≈ 127 µM)
[1]
  MCF-7 IC50: 44.4 ± 1.8 µg/mL
[1]; 96 h
  IC50 MCF-7 96 h: 38.0 µg/mL (≈ 89.1 µM)
[1]; [4]
  IC50: 158 µM
[1]; [5]
  IC50: 127 µM
[1]; [6]
  IC50: 104 µM
[1]; [7]
  IC50: 89.1 µM
[2]; 24 h
  IC50 MDA-MB-231 24 h: 72.5 µg/mL (≈ 170 µM)
[2]; [8]
  IC50: 170 µM
[2]; 48 h
  IC50 MDA-MB-231 48 h: 55.6 µg/mL (≈ 130 µM)
[2]; 72 h
  IC50 MDA-MB-231 72 h: 48.5 µg/mL (≈ 114 µM)
[2]; [9]
  IC50: 114 µM
[2]; [10]
  MDA-MB-231 IC50: 48.5 ± 1.9 µg/mL
[2]; 96 h
  IC50 MDA-MB-231 96 h: 43.8 µg/mL (≈ 103 µM)
[2]; [11]
  IC50: 103 µM
[2]; [12]
  IC50: 130 µM

## COc1cc(C(O)c2ccc(OCc3ccccc3)c(OC)c2)ccc1OCc1ccccc1 [QB46]
[1]; 24 h
  IC50 MCF-7 24 h: 73.2 µg/mL (≈ 160 µM)
[1]; 48 h
  IC50 MCF-7 48 h: 59.5 µg/mL (≈ 130 µM)
[1]
  MCF-7 IC50: 44.8 ± 1.7 µg/mL
  antiproliferative / cytotoxic activity in words: moderate cytotoxic activity
[1]; 96 h
  IC50 MCF-7 96 h: 36.8 µg/mL (≈ 80.6 µM)
[1]; [4]
  IC50: 160 µM
[1]; [5]
  IC50: 130 µM
[1]; [6]
  IC50: 98.1 µM
[1]; [7]
  IC50: 80.7 µM
[2]; [17]
  IC50: 78.3 µg/mL and 172 µM
[2]; [13]
  IC50: 72.4 µg/mL and 159 µM
[2]; [14]
  IC50: 62.9 µg/mL and 138 µM
[2]; [15]
  IC50: 62.9 to 77.4 µg/mL
[2]; [16]
  IC50: 53 µg/mL and 116 µM

## COc1ccc(C(O)(c2ccc(OC)c(O)c2)c2ccc(OC)c(O)c2)cc1O [TRD6]
[1]; 24 h
  IC50 MCF-7 24 h: 78.7 µg/mL (≈ 198 µM)
[1]; 48 h
  IC50 MCF-7 48 h: 66.1 µg/mL (≈ 166 µM)
[1]
  MCF-7 IC50: 60.4 ± 1.9 µg/mL
  antiproliferative / cytotoxic activity in words: moderate cytotoxic activity
[1]; 96 h
  IC50 MCF-7 96 h: 43.6 µg/mL (≈ 109 µM)
[1]; [4]
  IC50: 198 µM
[1]; [5]
  IC50: 166 µM
[1]; [6]
  IC50: 152 µM
[1]; [7]
  IC50: 109 µM
[2]; [14]
  IC50: 75.2 µg/mL and 189 µM
[2]; [15]
  IC50: 62.9 to 77.4 µg/mL
[2]; [16]
  IC50: 71.5 µg/mL and 179 µM
